#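 Method: 48-hour compound exposure of cells in 96-well plates, five concentrations, linear interpolation of endpoints. TGI: total growth inhibition.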
# Legend:
# Test in all cases: NCI anticancer screen, dose series, 48 h
# [1] = system: PC-3 prostate
# [2] = system: T-47D breast
# [3] = system: SK-OV-3 ovarian
# [4] = system: COLO 205 colon
# [5] = system: U251 CNS
# [6] = system: SK-MEL-2 melanoma
# [7] = system: UO-31 renal
# [8] = system: HS 578T breast
# [9] = system: SW-620 colon
# [10] = system: NCI/ADR-RES ovarian
# [11] = system: DU-145 prostate
# [12] = system: KM12 colon
# [13] = system: RPMI-8226 leukemia
# [14] = system: SNB-75 CNS
# [15] = system: HCT-15 colon
# [16] = system: EKVX NSCLC
# [17] = system: RXF 393 renal
# [18] = system: A498 renal
# [19] = system: SF-268 CNS
# [20] = system: CCRF-CEM leukemia
# [21] = system: SK-MEL-5 melanoma
# [22] = system: HOP-62 NSCLC
# [23] = system: HCT-116 colon
# [24] = system: HOP-92 NSCLC
# [25] = system: A549 NSCLC
# [26] = system: BT-549 breast
# [27] = system: HL-60(TB) leukemia
# [28] = system: SK-MEL-28 melanoma
# [29] = system: NCI-H460 lung
# [30] = system: SF-295 CNS
# [31] = system: MOLT-4 leukemia
# [32] = system: SNB-19 CNS
# [33] = system: TK-10 renal
# [34] = system: UACC-257 melanoma
# [35] = system: K-562 leukemia
# [36] = system: OVCAR-3 ovarian
# [37] = system: OVCAR-5 ovarian
# [38] = system: MDA-N
# [39] = system: M14 melanoma
# [40] = system: HCC-2998 colon
# [41] = system: SN12C renal
# [42] = system: CAKI-1 renal
# [43] = system: HT29 colon
# [44] = system: SR leukemia
# [45] = system: LOX IMVI melanoma
# [46] = system: MCF7 breast
# [47] = system: NCI-H23 lung
# [48] = system: IGROV1 ovarian
# [49] = system: MDA-MB-231 breast
# [50] = system: OVCAR-8 ovarian
# [51] = system: MDA-MB-435
# [52] = system: 786-0 renal
# [53] = system: NCI-H226 lung
# [54] = system: ACHN renal
# [55] = system: NCI-H522 lung
# [56] = system: MALME-3M melanoma
# [57] = system: SF-539 CNS
# [58] = system: UACC-62 melanoma
# [59] = system: OVCAR-4 ovarian
structure (smiles),measurement,setting,value
O=C(Cc1ccccc1)Nc1nc2ccc(Cl)cc2c2nc(-c3ccco3)nn12,TGI,[1],> 100 µM
same,TGI,[2],> 100 µM
same,TGI,[3],> 100 µM
same,TGI,[4],> 100 µM
same,TGI,[5],> 100 µM
same,TGI,[6],> 100 µM
same,TGI,[7],> 100 µM
same,TGI,[8],> 100 µM
same,TGI,[9],> 100 µM
same,TGI,[10],> 100 µM
same,TGI,[11],> 100 µM
same,TGI,[12],> 100 µM
same,TGI,[13],> 100 µM
same,TGI,[14],> 54.2 µM
same,TGI,[15],> 100 µM
same,TGI,[16],> 100 µM
same,TGI,[17],59.7 µM
same,TGI,[18],> 100 µM
same,TGI,[19],> 100 µM
same,TGI,[20],> 100 µM
same,TGI,[21],> 100 µM
same,TGI,[22],> 62.4 µM
same,TGI,[23],> 100 µM
same,TGI,[24],57.1 µM
same,TGI,[25],> 100 µM
same,TGI,[26],> 100 µM
same,TGI,[27],> 100 µM
same,TGI,[28],> 100 µM
same,TGI,[29],> 100 µM
same,TGI,[30],> 100 µM
same,TGI,[31],> 100 µM
same,TGI,[32],> 55.6 µM
same,TGI,[33],> 75.3 µM
same,TGI,[34],> 100 µM
same,TGI,[35],> 100 µM
same,TGI,[36],> 100 µM
same,TGI,[37],> 100 µM
same,TGI,[38],> 100 µM
same,TGI,[39],> 100 µM
same,TGI,[40],> 100 µM
same,TGI,[41],> 100 µM
same,TGI,[42],> 100 µM
same,TGI,[43],> 100 µM
same,TGI,[44],> 77.2 µM
same,TGI,[45],> 100 µM
same,TGI,[46],> 100 µM
same,TGI,[47],> 100 µM
same,TGI,[48],> 100 µM
same,TGI,[49],> 100 µM
same,TGI,[50],> 100 µM
same,TGI,[51],> 100 µM
same,TGI,[52],> 100 µM
same,TGI,[53],> 82.7 µM
same,TGI,[54],> 100 µM
same,TGI,[55],> 100 µM
same,TGI,[56],> 100 µM
same,TGI,[57],> 60.5 µM
same,TGI,[58],> 100 µM
CNc1ccc(Cl)cc1C(=O)N1CCC[C@H]1CO,TGI,[1],> 100 µM
same,TGI,[2],> 100 µM
same,TGI,[3],> 100 µM
same,TGI,[4],> 100 µM
same,TGI,[5],> 100 µM
same,TGI,[6],> 100 µM
same,TGI,[59],> 100 µM
same,TGI,[7],> 100 µM
same,TGI,[8],> 100 µM
same,TGI,[9],> 100 µM
same,TGI,[10],> 100 µM
same,TGI,[11],> 100 µM
same,TGI,[12],> 100 µM
same,TGI,[13],> 100 µM
same,TGI,[14],> 100 µM
same,TGI,[15],> 100 µM
same,TGI,[16],> 100 µM
same,TGI,[17],> 100 µM
same,TGI,[18],> 100 µM
same,TGI,[19],> 100 µM
same,TGI,[20],> 100 µM
same,TGI,[22],> 100 µM
same,TGI,[23],> 100 µM
same,TGI,[24],> 100 µM
same,TGI,[25],> 100 µM
same,TGI,[26],> 100 µM
same,TGI,[27],> 100 µM
same,TGI,[28],> 100 µM
same,TGI,[29],> 100 µM
same,TGI,[30],> 100 µM
same,TGI,[31],> 100 µM
same,TGI,[32],> 100 µM
same,TGI,[33],> 100 µM
same,TGI,[34],> 100 µM
same,TGI,[35],> 100 µM
same,TGI,[36],> 100 µM
same,TGI,[37],> 100 µM
same,TGI,[38],> 100 µM
same,TGI,[39],> 100 µM
same,TGI,[40],> 100 µM
same,TGI,[41],> 100 µM
same,TGI,[42],> 100 µM
same,TGI,[43],> 100 µM
same,TGI,[44],> 100 µM
same,TGI,[45],> 100 µM
same,TGI,[46],> 100 µM
same,TGI,[47],> 100 µM
same,TGI,[48],> 100 µM
same,TGI,[49],> 100 µM
same,TGI,[50],> 100 µM
same,TGI,[51],> 100 µM
same,TGI,[52],> 100 µM
same,TGI,[53],> 100 µM
same,TGI,[54],> 100 µM
same,TGI,[55],> 100 µM
same,TGI,[56],> 100 µM
same,TGI,[57],> 100 µM
same,TGI,[58],> 100 µM

# — PubChem BioAssay (NCI)
